Assay [1] deals with Glycogen synthase kinase-3 beta (Homo sapiens, UniProt P49841). The assay is described as follows: Inhibitory activity against glycogen synthase kinase-3 (GSK-3beta).
Assay [2] addresses T1, cAMP-dependent protein kinase (PKA) (Homo sapiens, UniProt P22694+P17612+P22612). The experiment in a line: Inhibitory activity against protein kinase A (PKA ). In kind it is protein assay.
Assay [3] concerns the target T1, cAMP-dependent protein kinase (PKA). The experiment in a line: Inhibition of protein kinase A (PKA). The class given is protein assay.

A value given as a limit tells only on which side of the number the result lay.

Chain of Glycogen synthase kinase-3 beta (P49841 whole entry): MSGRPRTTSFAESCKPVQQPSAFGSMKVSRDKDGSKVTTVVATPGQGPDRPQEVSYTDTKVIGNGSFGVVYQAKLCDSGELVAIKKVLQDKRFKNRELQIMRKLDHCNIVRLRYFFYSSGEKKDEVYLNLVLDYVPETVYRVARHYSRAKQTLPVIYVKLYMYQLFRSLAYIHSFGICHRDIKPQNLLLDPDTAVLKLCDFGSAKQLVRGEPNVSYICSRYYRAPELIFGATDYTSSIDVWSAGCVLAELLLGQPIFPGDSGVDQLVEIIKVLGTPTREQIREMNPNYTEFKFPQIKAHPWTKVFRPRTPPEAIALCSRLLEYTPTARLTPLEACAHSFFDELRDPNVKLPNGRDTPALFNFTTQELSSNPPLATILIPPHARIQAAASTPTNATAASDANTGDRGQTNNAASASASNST

Usually IC50 stands for the concentration at which inhibition is half-maximal. A low value points to higher potency. For `O=C(CCl)c1cscc1Cl`, the IC50 in assay [1] was 25 µM; in assay [2], above 100 µM.

The compound `CC(=O)c1ccc(C(=O)CCl)s1` yielded an IC50 in assay [1] of 50 µM.

On to `O=C(CCl)c1cccs1`, for which, in assay [1], the IC50 came to 50 µM.

`Cc1sc(C(=O)CCl)cc1C(=O)CCl`: the IC50 in assay [1] is 5 µM.

In assay [1], `O=C(CCl)c1cc(Br)cs1` came in with an IC50 of 3 µM.

Take `O=C(CCl)c1ccc(Br)s1`: the figures for the IC50 in assay [1] and in assay [2] were 10 µM and above 100 µM, respectively.

For the compound `O=C(CCl)c1cc(Cl)sc1Cl`, the values for the IC50 in assay [1] and in assay [2] were 5 µM and above 100 µM, respectively.

In the case of `Cc1ccc(C(=O)CCl)s1`, the IC50 in assay [1] is above 100 µM.

Take `O=C(CCl)c1ccc(Cl)s1`: the IC50 in assay [1] is 10 µM; in assay [2], above 100 µM.

For `O=C(CCl)c1c(Br)sc(Cl)c1Cl`, the IC50 in assay [1] is 2 µM; in assay [3], above 100 µM.

For `O=C(CBr)c1ccc(-c2ccccc2)cc1`, the values for the IC50 in assay [1] and in assay [2] were 2.5 µM and above 100 µM, respectively.

`O=C(CCl)c1c(Br)sc(Br)c1Br` had an IC50 in assay [1] of 1 µM.

Turning to `Cc1c(C(=O)CCl)csc1C(=O)CCl`, the values for the IC50 in assay [1] and in assay [2] were 5 µM and above 100 µM, respectively.

Consider `O=C(CCl)c1csc(C(=O)CCl)c1`, for which the half-inhibitory concentration (IC50) was 1.5 µM in assay [1] and above 100 µM in assay [2].

Turning to `CC(=O)c1csc(C(=O)CCl)c1`, the values for the IC50 in assay [1] and in assay [2] were 8 µM and above 100 µM, respectively.

In turn, `O=C(CCl)c1ccccc1` [PHENACYL CHLORIDE] came in with an IC50 in assay [1] of 50 µM.

The compound `Cc1cc(C(=O)CCl)c(C)s1` yielded an IC50 in assay [1] above 100 µM.

In turn, `Cc1ccsc1C(=O)CCl` registered an IC50 in assay [1] of 75 µM.

As for `O=C(CCl)c1scc(Br)c1Br`, the IC50 in assay [1] is 0.5 µM; in assay [2], above 100 µM.

Consider `Cc1csc(C(=O)CCl)c1`, for which the IC50 in assay [1] is above 100 µM.

On to `O=C(CCl)c1cc(Br)c(Br)s1`, for which the IC50 in assay [1] was 1 µM; in assay [2], above 100 µM.

Regarding `O=C(CBr)c1ccccc1`, the figures for the IC50 in assay [1] and in assay [2] were 5 µM and above 100 µM, respectively.

As to `O=C(CBr)c1ccc(Br)cc1`, the results for the IC50 in assay [1] and in assay [2] were 0.5 µM and above 100 µM, respectively.

As for `O=C(CCl)c1cc(Cl)c(Cl)s1`, the IC50 in assay [1] turned out to be 2.5 µM.

Take `O=C(CCl)c1ccc(Cl)cc1`: the IC50 in assay [1] was 2.5 µM; in assay [2] it was above 100 µM.

These data come from ChEMBL document CHEMBL1145133, “Thienyl and phenyl alpha-halomethyl ketones: new inhibitors of glycogen synthase kinase (GSK-3beta) from a library of compound searching” (J Med Chem, 2003).
